Source: ChEMBL document CHEMBL1139775, “A novel ketolide class: Synthesis and antibacterial activity of a lead compound” (2007)
≈ marks a conversion by molar mass, not a printed value.

How the values were obtained:
Format in all cases: functional
Staphylococcus aureus [1] = assay: Antibacterial activity against erythromycin-sensitive Staphylococcus aureus ATCC 13709
Staphylococcus aureus [2] = assay: Antibacterial activity against […] MLSc
Streptococcus pneumoniae [3] = assay: Antibacterial activity against erythromycin-sensitive Streptococcus pneumoniae
Streptococcus pneumoniae [4] = assay: Antibacterial activity against Streptococcus pneumoniae 4636 MLSc
Streptococcus pneumoniae [5] = assay: Antibacterial activity against Streptococcus pneumoniae CI137 M
Streptococcus pyogenes [6] = assay: Antibacterial activity against erythromycin-sensitive Streptococcus pyogenes 3565
Streptococcus pyogenes [7] = assay: Antibacterial activity against Streptococcus pyogenes MLSi
Streptococcus pyogenes [8] = assay: Antibacterial activity against Streptococcus pyogenes M
Moraxella catarrhalis = assay: Antibacterial activity against Moraxella catarrhalis ATCC 23246
Haemophilus influenzae = assay: Antibacterial activity against Haemophilus influenzae ATCC 49247
Escherichia coli = assay: Antibacterial activity against Escherichia coli ATCC 25922

| SMILES | MIC (Staphylococcus aureus [1]) | MIC (Staphylococcus aureus [2]) | MIC (Streptococcus pneumoniae [3]) | MIC (Streptococcus pneumoniae [4]) | MIC (Streptococcus pneumoniae [5]) | MIC (Streptococcus pyogenes [6]) | MIC (Streptococcus pyogenes [7]) | MIC (Streptococcus pyogenes [8]) | MIC (Moraxella catarrhalis) | MIC (Haemophilus influenzae) | MIC (Escherichia coli) |
| --- | --- | --- | --- | --- | --- | --- | --- | --- | --- | --- | --- |
| CC[C@@H]1OC(=O)[C@H](C)C(=O)[C@H](C)[C@@H](O[C@@H]2O[C@H](C)C[C@H](N(C)C)[C@H]2O)[C@@](C)(OC)C[C@@H](C)C(=O)[C@H](C)[C@H]2NC(=O)O[C@]12C | 0.25 µg/mL (≈ 0.408 µM) | > 128 µg/mL | 0.06 µg/mL (≈ 0.0979 µM) | > 128 µg/mL | 0.25 µg/mL (≈ 0.408 µM) | 0.06 µg/mL (≈ 0.0979 µM) | 0.06 µg/mL (≈ 0.0979 µM) | 0.25 µg/mL (≈ 0.408 µM) | 0.12 µg/mL (≈ 0.196 µM) | 16 µg/mL (≈ 26.1 µM) | 64 µg/mL (≈ 104 µM) |
| CC[C@@H]1OC(=O)[C@H](C)C(=O)[C@H](C)[C@@H](O[C@@H]2O[C@H](C)C[C@H](N(C)C)[C@H]2O)[C@@](C)(OC)C[C@@H](C)C(=O)[C@H](C)[C@H]2CC(=O)O[C@]12C | 0.5 µg/mL (≈ 0.817 µM) | > 128 µg/mL | ≤ 0.06 µg/mL | > 128 µg/mL | 0.12 µg/mL (≈ 0.196 µM) | 0.12 µg/mL (≈ 0.196 µM) | 0.5 µg/mL (≈ 0.817 µM) | 0.12 µg/mL (≈ 0.196 µM) | 0.5 µg/mL (≈ 0.817 µM) | 16 µg/mL (≈ 26.2 µM) | 128 µg/mL (≈ 209 µM) |
| CC[C@H]1OC(=O)[C@H](C)[C@@H](O[C@H]2C[C@@](C)(OC)[C@@H](O)[C@H](C)O2)[C@H](C)[C@@H](O[C@@H]2O[C@H](C)C[C@H](N(C)C)[C@H]2O)[C@](C)(OC)C[C@@H](C)C(=O)[C@H](C)[C@@H](O)[C@]1(C)O [CLARITHROMYCIN] | 0.25 µg/mL (≈ 0.334 µM) | > 32 µg/mL | ≤ 0.06 µg/mL | > 128 µg/mL | 8 µg/mL (≈ 10.7 µM) | ≤ 0.06 µg/mL | 2 µg/mL (≈ 2.67 µM) | 2 µg/mL (≈ 2.67 µM) | ≤ 0.25 µg/mL | 8 µg/mL (≈ 10.7 µM) | 64 µg/mL (≈ 85.6 µM) |
